Measured values from publication PMC8238948, “Potent inhibitors of toxic alpha-synuclein identified via cellular time-resolved FRET biosensors” (NPJ Parkinson's Disease, 2021).
pEC50, pIC50: −log10 of the molar value. Entries after “also recorded” stand apart in the source; their conditions may differ.

What was measured:
αSN oligomers = target: T1, αSN oligomers (Homo sapiens, UniProt P37840); experiment: ThT content (β-sheet) of αSN oligomers after oligomerization assay; assay type: biochemical; details: 70 μM compound (1:5 compound:monomer), 12 h oligomerization; vs DMSO
T1 construct: made in house; host or cells: Escherichia coli BL21(DE3), T7-7 plasmid
Procedure: To explore the presence of β-sheet content in these oligomers, an aliquot was removed prior to cross-linking, diluted into 100 μM ThT working solution, and ThT fluorescence was monitored to detect the presence of β-sheet. Supplementary Fig. 22 presents each sample ThT content normalized to the PFF signal. We observed an increased ThT content in the αSN oligomers (αS-O) that was not affected by DMSO (vehicle) treatment.
A 10-μL aliquot from each sample was taken and diluted with 290 μL ThT working solution (100 μM ThT in PBS) and dispensed into 3 wells of a 384-well, black opaque plate. Additional samples of PBS, αSN(m), and αSN PFF were used as controls. Plates were incubated at ambient temperature for 10 min and then fluorescence read at 450ex/490em on a Spectromax-i3x (Molecular Devices).
Supplemental Figure 22. Characterization of β-sheet content in αSN oligomers due to hit compound
After the 12-hour oligomerization assay aliquots of each sample were
removed and diluted in 100μM ThT and fluorescence read in triplicate (450ex/490em) in 384-well plates. The
ThT signal was normalized to a signal from previously frozen αSN PFF aliquots. After completion of the
PFF, green bar) and the ThT signal was not affected by DMSO (red bar). Oligomerization in the presence of
control compounds, EGCG and Baicalin, at 70μM (a sub-stoichiometric,1:5 compound: monomer ratio)
Our hit compounds RO, DEM, and BAY had differential effects with
both DEM and BAY resulting in increased ThT content and RO not producing a significant change relative to
(1 picture or pasted object on this page, not shown here)

[1] = target: T2, WT αSN oligomer (inter-protomeric) FRET biosensor in HEK293 cells (Homo sapiens, UniProt P37840); experiment: FLT dose response, WT oligomer (inter-protomeric) FRET biosensor; assay type: cell-based; details: 1 nM to 50 μM
T2 construct: In addition to full-length αSN fusion constructs, we observe both C-terminally and N-terminally truncated αSN species; expressed in transfected cells; host or cells: HEK293
Procedure: (§1) Hits from the pilot HTS of the LOPAC library were selected and dispensed into 384-well plates to verify reproducible and specific FLT trends using the WT and A53T oligomer (inter-protomeric) FRET biosensors. Figure 6 presents a subset of these dose-response curves for hit compounds RO, BAY, SB206553, and DEM, along with known control compound EGCG. […] Assay quality was determined by Z′ (Eq. 2) where a Z′ > 0.5 indicates good assay quality. Using EGCG as control compound and the hit DEM, we calculated Z′ value of 0.76 and 0.66, respectively, indicating excellent assay quality.
(§2) Fig. 6 FRET dose response of pilot HTS hits. A subset of hits were evaluated using both WT (a) and A53T (b) oligomer biosensor to verify both increased FLT (disrupting αSN–αSN interactions) and decreased FLT (tighter aggregation or remodeled oligomers).
(§3) Compounds were tested in a FLT dose-response assay. The compound was dissolved to 10 mM in DMSO, then serially diluted in 96-well mother plates. Each hit was re-screened for FLT dose response across eight concentrations (1 nM to 50 μM). Compounds (0.5 μL) were transferred from mother plates into assay plates using a Mosquito HV liquid handler (TTP Labtech Ltd, UK). The preparations for αSN FRET biosensors were carried out as above.

[2] = target: T3, intra-protomeric αSN biosensor (GFP-αSN-RFP) in HEK293 cells (Homo sapiens, UniProt P37840); experiment: FRET response on intra-protomeric αSN biosensor; assay type: cell-based; details: 10 µM
T3 construct: In addition to full-length αSN fusion constructs, we observe both C-terminally and N-terminally truncated αSN species; expressed in transfected cells; host or cells: HEK293
Procedure: Hits were also evaluated with the intra-protomeric αSN and control, non-specific biosensors. […] The compounds RO, BAY, and DEM as well as the control EGCG each reduced FRET, indicating either reduction in oligomerization or expanded oligomer conformation. Tests of these compounds in two control biosensor systems (GFP/RFP at 1:8 and GFP-linker32-RFP; see Supplementary Fig. 13a, b, respectively) show no significant FRET change.
Fig. 7 FRET response to pilot HTS hits on intra-protomeric αSN biosensor. […] With both donor and acceptor XFP fused to one construct, this biosensor is sensitive to both oligomer formation as well as conformation. […] Experiments were performed with n = 3; *p < 0.05, **p < 0.01, ***p < 0.001, ns indicates no significant difference as determined by Student’s t test.

[3] = target: T4, A53T αSN oligomer (inter-protomeric) FRET biosensor in HEK293 cells (Homo sapiens, UniProt P37840, A53T); experiment: FLT dose response, A53T oligomer (inter-protomeric) FRET biosensor; assay type: cell-based; details: 1 nM to 50 μM
T4 construct: In addition to full-length αSN fusion constructs, we observe both C-terminally and N-terminally truncated αSN species; expressed in transfected cells; host or cells: HEK293
Procedure: as §1, §2, §3

[4] = target: T5, αSN (15 μM monomeric αSN doped with 5% αSN PFF seeds) (Homo sapiens, UniProt P37840); experiment: Seeded Thioflavin-T aggregation assay; assay type: biochemical; details: 15 μM αSN monomer + 5% PFF; for pIC50: 37 °C, max ThT intensity
T5 construct: made in house; host or cells: Escherichia coli BL21(DE3), T7-7 plasmid
Procedure: Figure 11 and Supplementary Fig. 23 present results from a dose-response-seeded aggregation assay. Vehicle, control, and hit compounds were incubated with 15 µM αSN(m), doped with 5% freshly sonicated αSN PFF in PBS under mild agitation (Supplementary Fig. 23a). […] Titration of control and hit compounds were run in triplicate; representative traces of hit compounds are illustrated in Fig. 11a with a full summary of each titration detailed in Supplementary Fig. 23c–h. IC50 was determined for each compound by determining the max ThT intensity for each concentration (Fig. 11b).
Seeded ThT aggregation assay was performed using 15 μM monomeric αSN doped with 5% (0.75 μM sonicated αSN pre-formed fibril (PFF) seeds) in a 384-well plate under slow agitation (300 RPM) at 37 °C. a Control samples for the aggregation include PBS (black), αSN monomer (brown), 5% αSN PFF (red), and the 15 μM monomer+5% PFF mixture (orange). Dose-response curves were made with a titration of compounds. […] In contrast, RO and DEM both show potent effects relative to Baicalin and EGCG controls. BAY does have some response, but it lags behind other hit compounds. b Normalizing the initial peak in ThT data allows us to estimate an IC50 for each hit. […] Although there is a small trend with BAY, the data cannot be fit to resolve an IC50.
ThT (Sigma, product no. T3516) was dissolved in PBS buffer and was filtered through a 0.2-µm syringe filter to make a stock solution of 2.5 mM. Working ThT concentration was 20 µM. PFF seeds were produced via constant agitation of 1000 RPM at 37 °C (ThermoMixer-C, Eppendorf, Hauppauge, NY) of 500 µL of 350 µM αSN in PBS in a 2 mL tube for 5 days. PFFs were aliquoted and flash frozen and stored at −80 °C until further use. PFF seeds were rapidly thawed, diluted to 35 µM in PBS, and sonicated 120 pulses at 50% using a probe-tip sonicator following the established protocols. Master mix samples for each of the different ThT assays were prepared and dispensed in triplicate as 50 µL in 384-well flat, black-bottom polypropylene plates (PN 781209, Greiner Bio-One) and sealed with fluorescently transparent film. Conditions for non-seeded, seeded, and cell homogenate assays varied slightly.
Seeded ThT experiments were performed at a lower monomer concentration to preclude spontaneous αSN aggregation during the time course of the experiment. For both seeded and cell homogenate experiments, sample were prepared in PBS + 20 µM ThT with or without 15 µM αSN(m) +/− 5% PFF (0.75 µM). Additional control samples of 15 µM PFF and 0.75 µM PFF were also prepared. All empty wells were filled with PBS for a thermal sink and to help prevent evaporation. Assay plates were prepared as pre-cellular FRET dose response above. Dose response was done across 8 concentrations (10 nM to 50 µM). The assay was run at 37 °C with mild shaking (200 RPM) in a Cytation3 plate reader. The ThT fluorescence was monitored with excitation filter of 450 nm and emission filter of 490 nm. Readings were acquired every 20 min for a minimum of 24 h. Seeded ThT aggregation IC50 values were determined by first normalizing all ThT curves to the maximal signal at plateau for the αSN + 5% PFF + DMSO samples. The normalized fluorescence at each concentration was fit to the Hill equation to resolve an effective IC50 of seeded aggregation inhibition.

[5] = test system: inter-protomeric and intra-protomeric αSN FRET biosensors in HEK293 cells; experiment: Pilot HTS of the LOPAC library, fluorescence lifetime (FLT) of cellular αSN FRET biosensors; assay type: cell-based, human; details: 10 µM compound, 90 min; hit = FLT change >5 SD
Procedure: Prior to each pilot HTS, FLT and emission spectrum were measured to verify signal level, basal FRET, coefficient of variance (CV), and similarity index. For each HTS, cells were dispensed into compound plates—1536-well (10 µL/well)—and incubated with the compounds (10 µM) or dimethyl sulfoxide (DMSO; 1%) for 90 min. FLT measurements were acquired with the FLT-PR. After deconvolving the instrument response function, a single exponential fit was used to determine the FLT for both the αSN cellular FRET biosensor (τDA) and the donor-only control biosensor (τD). FRET efficiency was determined by Eq. 1. CV was determined from control plates (N = 384 wells).
Fluorescent compounds (FC) were flagged using a spectral similarity index filter, which evaluates the ratio of intensity from two bandwidths that span the donor emission spectrum and are excluded as potential false positives[45],[46],[49],[51],[66]. […] Compounds that changed FLT by >5 standard deviations (SD) were considered hits (Fig. 5, red data points).
On each day of screening, the compound plates were equilibrated to room temperature (RT; 25 °C). The cells were harvested from the 100-mm plates by incubating with TrypLE (Invitrogen) for 2 min, washed three times in PBS by centrifugation at 200 × g, and filtered using 70-μm cell strainers (BD Falcon). Cell viability prior to screen was assessed using a trypan blue assay and confirmed to be >80%. Cells were diluted to 1.5E6 cells/mL. Expression of GFP-αSN and the αSN biosensors were confirmed by fluorescence microscopy prior to each screen (EvosFL-Auto microscope, Thermo Fisher Scientific, USA). During screening, cells (50 μL/well for 384-well; 10 μL/well for 1536-well) were dispensed by a Multidrop Combi liquid dispenser (Thermo, Pittsburg, PA, USA) into the assay plates containing the compounds and allowed to incubate at RT for 90 min before recording with the FLT-PR or SUPR (both instruments manufactured by Fluorescence Innovations Inc., both owned and provided by Photonic Pharma LLC), as described previously[46].
Interfering compounds were flagged as potential false positives by a set of stringent FC filters based on spectral analysis of each well from the LOPAC screen[45],[46]. After removal of FCs, a histogram of the FLT distribution from all compounds in the screen was plotted and fit to a Gaussian curve to obtain the mean (µ) and SD (σ). A hit was defined as a compound that attenuated the FLT efficiency by >5σ relative to the mean µ (Supplementary Fig. 12).

[6] = test system: SH-SY5Y cells overexpressing unlabeled wild-type (WT) αSN; experiment: CytoTox-Glo cytotoxicity assay: rescue of αSN-induced cytotoxicity; assay type: cell-based, human
Procedure: Hit compounds were evaluated for rescue of αSN-induced cytotoxicity in using an SH-SY5Y neuroblastoma cell model of alpha-synucleinopathy[18],[69]–[72]. […] A seven-point CRC for RO, BAY, DEM, and Anle138b (positive control compound[41],[73]) was performed to determine IC50 for each compound. […]
Cell cytotoxicity was measured using the CytoTox-Glo (Promega Corporation) Luminescence Assay Kit. SH-SY5Y human neuroblastoma cells were plated at a density of 5 × 10^6 cells/plate in 100 mm plate (Corning) and transfected with unlabeled WT αSN or equivalent vector-only control for 24 h. The transfected cells were then plated at a density of 5000 cells/well in white solid 96-well plate (Corning) with a total volume of 100 μL, followed by treatment with hit compounds spanning a range of concentrations (0.1 nM to 100 μM), as well as DMSO-only controls, for another 48 h. After incubation, 50 μL of CytoTox-Glo Cytotoxicity Assay Reagent was added to all wells followed by mixing by orbital shaking and incubation in the dark for 15 min at RT. Luminescence readings were measured using a Cytation3 Cell Imaging Multi-Mode Reader luminometer (BioTek). After the first read, 50 μL of Lysis Reagent was added, incubated for 15 min at RT, and a second read performed. Total viable cellular luminance was determined by the difference between the first and second luminescence signal and total cellular viability is determined by normalizing to the no-treatment samples.

αSN oligomerization = test system: αSN oligomerization; set-up: method as in PMID 23604588; details: read-out: apparent EC50, inhibition of αSN oligomerization; cited from earlier work
[7] = test system: differentiated SH-SY5Y cells treated with sonicated human αSN PFF; experiment: Differentiated SH-SY5Y cell model of αSN PFF pathology (pS129 immunoblot); assay type: cell-based; details: 50 μM Baicalin, 200 nM human PFF, 48 h
Procedure: SH-SY5Y cells were differentiated using reduced serum (3%) media supplemented with 10 μM retinoic acid for 3 days and then changed to serum-free media supplemented with 10 ng/mL brain-derived neurotrophic factor for the remainder of the experiment. Stock αSN PFFs were diluted and sonicated as described previously. SH-SY5Y cultures were then treated with 200 nM PFF and PBS, DMSO, 1 μM drug compound (RO, BAY, or DEM), or 50 μM Baicalin. After 48 h, SH-SY5Y were washed with PBS and harvested in cold lysis buffer with protease and phosphatase inhibitors, as previously described. Approximately 15 μg of total protein was loaded onto a 4–20% Criterion TGX midi gel and probed using Syn1 (BD Biosciences, #610787; 1° 1:5000; 2° 1:10K) and pS^129 aSyn (abcam, ab59264; 1° 1:1000; 2° 1:5000) and a-tubulin (abcam, ab4074; 1° 1:1000; 2° 1:10K) page 19: Supplemental Figure 18. […] Differentiated SH-SY5Y cells were treated with PBS, vehicle (DMSO) or compounds with and without 200nM sonicated human αSN PFFs. […] These will be removed in subsequent densitometry analysis. (b) Replicates of PFF +/- compound treatment were ran for immunoblot analysis of pS129 immunoreactivity. (c) Densitometry analysis was performed using ImageLab from BioRad. Total pS129 signal (excluding the non- specific bands) was normalized to tubulin loading control. […] Quantification is normalized per lane to highlight change in the ratio of different species. Note, oligomers quantification is plotted relative to the right-y- axis. All statistical comparisons were to DMSO treatment using two-tailed t-test with * p<0.05; ** p<0.01; *** p<0.005.

O=C(O[C@@H]1Cc2c(O)cc(O)cc2O[C@@H]1c1cc(O)c(O)c(O)c1)c1cc(O)c(O)c(O)c1 [EGCG]
ThT signal of αSN oligomers (αSN oligomers): complete loss of ThT signal
FLT trend in dose response [1]: reduced donor FLT
change in intra-protomeric FRET [2]: reduced FRET
FLT trend in dose response [3]: reduced donor FLT
pIC50 [4]: 5.96

Cn1c(=O)c(-c2c(Cl)cccc2Cl)cc2cnc(Nc3ccc(N4CCOCC4)cc3)nc21 [PD173952]
identified as hit in the LOPAC screen [5]: identified

N#C/C(=C\c1ccc(-c2cc(Cl)ccc2Cl)o1)C(=O)Nc1cccc2ncccc12 [AGK2]
identified as hit in the LOPAC screen [5]: identified

Brc1cccc(-c2cc(-c3ccc4c(c3)OCO4)[nH]n2)c1 [Anle138b]
pEC50 ([6]; Homo sapiens, SH-SY5Y, 72-h transfection, 48-h exposure to compound, seven-point CRC, read-out: EC50, protection of SH-SY5Y cells from αSN-induced death): 6.05
pEC50 (αSN oligomerization): 5.55

O=C1Nc2cc(Br)ccc2/C1=C1/Nc2ccccc2/C1=N\O [Bio]
identified as hit in the LOPAC screen [5]: identified

SB206553
FLT trend in dose response [1]: increasing FLT trend; also recorded: mild recovery of FLT
rescue of αSN-induced cytotoxicity ([6]; dose response, 48-h exposure): no observed effect on cytotoxicity
rescue of toxicity in three-dose preliminary screen ([6]; three-dose assay): no rescue of toxicity
FLT trend in dose response [3]: increasing FLT trend; also recorded: mild recovery of FLT
effect on seeded aggregation ([4]; titration up to 50 μM): no aggregation inhibition; also recorded: little to no effect on aggregation

O=C(O)[C@H]1O[C@@H](Oc2cc3oc(-c4ccccc4)cc(=O)c3c(O)c2O)[C@H](O)[C@@H](O)[C@@H]1O [Baicalin]
ThT signal of αSN oligomers (αSN oligomers): complete loss of ThT signal
HMW pS129 signal [7]: strong HMW pS^129 signal
LMW oligomer pS129 fraction [7]: significantly reduced
pIC50 [4]: 6.41
